Test results published in PMC6803055 (Journal of pharmacological and toxicological methods, 2019).
Where two headings read alike, the source gives them in different places.

What was measured:
PDE5 = PDE5 (Homo sapiens, UniProt O76074); experiment: in vitro enzyme assay; format: biochemical; details: 100 μM (36 μg/mL) DSM421
rats [1] = experiment: original GLP respiratory study using head-out plethysmography; format: in vivo, rat; details: original head-out study, 200, 500, 750 mg/kg p.o.
dogs = experiment: cardiovascular and respiratory assessment in telemetry-instrumented dogs; format: in vivo, dog
pharmacokinetics in rats = format: in vivo; details: rat; for plasma Cmax (mean ± S.E.M.) / Tmax (mean ± S.E.M.): n=4
rats [2] = experiment: Irwin test; format: in vivo, rat; details: oral doses of 200, 500 and 750 mg/kg
Male Sprague Dawley rats [3] = details: rat, in vivo, po
PDE6 = experiment: in vitro enzyme assay; format: biochemical; details: 100 μM (36 μg/mL) DSM421
Male Sprague Dawley rats [4] = experiment: respiratory function, whole-body plethysmography; format: in vivo, rat; details: for increase in tidal volume: throughout 5 hours post-dosing, not significant
Male Sprague Dawley rats [5] = experiment: stress-related hormones after plethysmography testing; format: in vivo, rat; details: approximately 5 hours post-dosing, 200, 500, 750 mg/kg p.o., whole-body and head-out testing
[6] = estimated plasma maximum concentrations in dogs; format: in vivo, dog
adenosine A3 receptor = molecular target: T1, adenosine A3 receptor (Homo sapiens, UniProt P0DMS8); experiment: in vitro binding assay
T1 sequence (P0DMS8 1-318): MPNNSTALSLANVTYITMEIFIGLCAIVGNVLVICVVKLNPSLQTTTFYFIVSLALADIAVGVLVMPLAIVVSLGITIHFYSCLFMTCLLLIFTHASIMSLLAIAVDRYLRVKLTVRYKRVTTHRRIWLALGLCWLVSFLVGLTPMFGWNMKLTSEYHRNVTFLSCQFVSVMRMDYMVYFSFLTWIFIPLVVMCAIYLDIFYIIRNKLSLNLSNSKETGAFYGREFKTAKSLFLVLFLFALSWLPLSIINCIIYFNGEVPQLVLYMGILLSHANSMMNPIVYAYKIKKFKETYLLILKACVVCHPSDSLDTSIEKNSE

[7] = molecular target: transient receptor potential cation channel subfamily V member 1 (TRPV1) (Homo sapiens, UniProt Q8NER1); experiment: in vitro functional assays for agonist and antagonist effects; format: biochemical
Chain of transient receptor potential cation channel subfamily V member 1 (TRPV1) (Q8NER1 whole entry, species assumed): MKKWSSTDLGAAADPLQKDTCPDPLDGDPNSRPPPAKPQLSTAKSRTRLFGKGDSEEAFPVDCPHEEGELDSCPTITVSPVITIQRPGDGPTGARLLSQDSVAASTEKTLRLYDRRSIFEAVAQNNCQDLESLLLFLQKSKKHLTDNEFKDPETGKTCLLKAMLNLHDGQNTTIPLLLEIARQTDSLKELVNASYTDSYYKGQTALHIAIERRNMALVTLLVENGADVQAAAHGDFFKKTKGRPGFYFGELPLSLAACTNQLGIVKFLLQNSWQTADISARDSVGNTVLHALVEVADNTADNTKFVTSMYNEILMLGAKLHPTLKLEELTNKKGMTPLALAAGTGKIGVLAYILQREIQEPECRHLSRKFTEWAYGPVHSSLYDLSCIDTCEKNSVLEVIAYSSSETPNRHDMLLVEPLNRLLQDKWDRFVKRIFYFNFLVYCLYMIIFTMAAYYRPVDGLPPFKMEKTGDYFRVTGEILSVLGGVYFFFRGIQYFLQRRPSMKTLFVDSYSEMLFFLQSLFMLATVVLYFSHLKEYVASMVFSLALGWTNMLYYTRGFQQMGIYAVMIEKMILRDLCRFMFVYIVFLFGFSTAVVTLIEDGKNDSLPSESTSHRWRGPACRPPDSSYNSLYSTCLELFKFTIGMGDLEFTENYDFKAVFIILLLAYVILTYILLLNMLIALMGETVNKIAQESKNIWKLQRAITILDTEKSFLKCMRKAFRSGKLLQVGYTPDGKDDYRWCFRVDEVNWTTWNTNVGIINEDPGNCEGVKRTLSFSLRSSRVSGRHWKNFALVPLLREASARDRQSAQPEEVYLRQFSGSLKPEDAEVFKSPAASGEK

[8] = whole-body, 200 and 500 mg/kg p.o., peak at 5 hours post-dosing

SMILES: Cc1cc(Nc2ccc(C(F)(F)F)nc2)n2nc(C(C)(F)F)nc2n1 [DSM421, 2-(1,1-difluoroethyl)-5-methyl-N-[6-trifluromethyl-3-pyridyl]-[1,2,4]triazolo[1,5-a]pyrimidin-7-amine]
- inhibition (PDE5): 59%
- time after administration of death or euthanasia in extremis (rats [1]): 3 to 5 h
- clinical observation (dogs; 100 mg/kg p.o.): emesis
- increase in minute volume (dogs; 100 mg/kg p.o.): 4- to 5 fold
- increase in respiratory rate (dogs; 100 mg/kg p.o.): 4- to 5 fold
- cardiovascular function (heart rate, blood pressure, and ECG) (dogs; 30 and 100 mg/kg p.o.): no effects
- tidal volume (dogs; 30 and 100 mg/kg p.o.): no effects
- no-observed-effect level (NOEL) (dogs; p.o.): 30 mg/kg
- plasma Cmax (mean ± S.E.M.) (pharmacokinetics in rats; 200 mg/kg p.o.): 49 µg/mL
- Tmax (mean ± S.E.M.) (pharmacokinetics in rats; 500 mg/kg p.o.): 18 ± 3.5 h
- plasma Cmax (mean ± S.E.M.) (pharmacokinetics in rats; 500 mg/kg p.o.): 73 µg/mL
- plasma level by 6 days after dosing relative to LLOQ (0.005 μg/mL) (pharmacokinetics in rats; 750 mg/kg p.o. (high dose)): only slightly greater than that
- Tmax (mean ± S.E.M.) (pharmacokinetics in rats; 750 mg/kg p.o.): 27 ± 7.5 h
- plasma Cmax (mean ± S.E.M.) (pharmacokinetics in rats; 750 mg/kg p.o.): 97 µg/mL
- Irwin test effects (rats [2]): no effects were observed
- changes in respiratory rate (Male Sprague Dawley rats [3]; 200 mg/kg): no changes in respiratory rate
- clinical signs (Male Sprague Dawley rats [3]; 200 mg/kg): no DSM421-related clinical signs
- mean minute volume increase above the control group (Male Sprague Dawley rats [3]; 200 mg/kg): approximately 17%
- animals with hypoactivity, salivation, dyspnea and/or increased body temperature (Male Sprague Dawley rats [3]; 500 mg/kg): 2 of the eight animals tested
- increase in respiratory rate above controls (Male Sprague Dawley rats [3]; 500 mg/kg): 5–17%
- mean minute volume increase above the control group (Male Sprague Dawley rats [3]; 500 mg/kg): ~48%
- increase in respiratory rate above controls (peak) (Male Sprague Dawley rats [3]; 750 mg/kg): 41–47%
- increase in tidal volume above controls (peak) (Male Sprague Dawley rats [3]; 750 mg/kg): 46–57%
- mean minute volume increase above controls (peak) (Male Sprague Dawley rats [3]; 750 mg/kg): 141%
- inhibition (PDE6): 72%
- clinical signs (Male Sprague Dawley rats [4]; whole-body chambers, 200, 500, 750 mg/kg p.o., 5-hour post-dosing period): no DSM421-related clinical signs
- increase in tidal volume (Male Sprague Dawley rats [4]; whole-body, 200 mg/kg p.o.): approximately 5%
- increase in tidal volume (Male Sprague Dawley rats [4]; whole-body, 500 mg/kg p.o.): ~6%
- mean minute volume increase (Male Sprague Dawley rats [4]; [8]): approximately 28%
- mean respiratory rate increase compared to vehicle control (Male Sprague Dawley rats [4]; [8]): 22–23%
- ACTH plasma level, effect of dose (Male Sprague Dawley rats [5]): no overall effect for dose
- aldosterone serum level, effect of dose (Male Sprague Dawley rats [5]): no overall effect for dose
- corticosterone serum level, effect of dose (Male Sprague Dawley rats [5]): overall effect for dose
- estimated maximum concentration (Cmax) in plasma ([6]; 30 mg/kg p.o.): 29 µg/mL
- estimated maximum concentration (Cmax) in plasma ([6]; 100 mg/kg p.o.): 69 µg/mL
- inhibition of control specific binding (adenosine A3 receptor; 10 μM DSM421): 40%
- inhibition of control specific binding (adenosine A3 receptor; 100 μM (36 μg/mL) DSM421): 91%
- agonist effect (percent of control agonist response) ([7]; 100 μM DSM421, agonist mode): 26%
- antagonist effect ([7]; 100 μM DSM421, antagonist mode): no effect
